Laboratory results reported in publication PMC7600264, “Quasi-Irreversible Inhibition of CYP2D6 by Berberine” (Pharmaceutics, 2020).
Read-outs that look alike come from different tables or passages of the source.

Columns and labels:
CYP2C8 = biological target: T1, CYP2C8 (Homo sapiens, UniProt P10632); experiment: Direct CYP inhibition assay using pooled HLM
T1 sequence (P10632 1-490): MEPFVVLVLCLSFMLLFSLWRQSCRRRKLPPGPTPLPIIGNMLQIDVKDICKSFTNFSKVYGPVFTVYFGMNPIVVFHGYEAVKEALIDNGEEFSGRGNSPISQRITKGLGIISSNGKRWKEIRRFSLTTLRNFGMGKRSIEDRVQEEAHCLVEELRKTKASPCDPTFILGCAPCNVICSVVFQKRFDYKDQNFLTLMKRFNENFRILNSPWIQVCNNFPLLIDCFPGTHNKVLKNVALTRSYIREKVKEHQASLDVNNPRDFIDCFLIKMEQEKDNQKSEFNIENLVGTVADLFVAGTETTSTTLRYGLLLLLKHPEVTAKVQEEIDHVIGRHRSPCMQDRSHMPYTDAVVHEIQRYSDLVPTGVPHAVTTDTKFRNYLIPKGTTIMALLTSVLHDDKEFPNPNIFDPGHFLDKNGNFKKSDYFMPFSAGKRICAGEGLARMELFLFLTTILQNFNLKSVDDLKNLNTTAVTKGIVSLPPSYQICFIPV
Description: (§1) The enzyme reactions were initiated by adding NADPH (1 mM), and the mixtures were incubated at 37 °C for 5 min in a shaking water bath (100 rpm). The reaction was terminated by adding ice-cold acetonitrile (ACN) containing CBZ (100 nM) and 4-methyl-umbelliferone (300 nM) as internal standards (IS).
(§2) The chromatographic separation was performed on an Agilent 1200 series HPLC system (Agilent Technologies, Santa Clara, CA, USA) equipped with an Atlantis^TM dC18 column (2.1 × 50 mm, 3 µm; Waters Corporation, Milford, MA, USA) with a SecuityGuard^TM C18 guard column (2.0 × 4.0 mm; Phenomenex, Torrance, CA, USA). The mobile phases consisted of double-deionized water (DDW) containing 0.1% (v/v) of formic acid (A) and ACN containing 0.1% (v/v) formic acid (B). […] The sample injection volume was 10 µL, and the total run time was 9.0 min. The column and auto-sampler compartments were maintained at 30 °C and 10 °C, respectively, throughout the analysis. The detection was performed using an API4000 Q-TRAP system equipped with a Turbo V Ion Spray^TM source (Applied Biosystems, Foster City, CA, USA). The operating conditions were optimized as follows: ionization voltage: 5500 V for positive-ion mode and −4500 V for negative-ion mode; ion source temperature: 550 °C; nebulizing gas flow: 50 L/min; auxiliary gas flow: 40 L/min; and curtain gas flow: 30 L/min. The samples were analyzed via multiple reaction monitoring (MRM) mode. […] The data acquisition and processing were performed using Analyst^TM software (version 1.5.2; Applied Biosystems, Foster City, CA, USA).

CYP3A4 = CYP3A4 (Homo sapiens, UniProt P08684); experiment: Direct CYP inhibition assay using pooled HLM; settings: for IC50: direct inhibition, 95% confidence intervals in parentheses
CYP3A4, sequence (P08684 whole entry): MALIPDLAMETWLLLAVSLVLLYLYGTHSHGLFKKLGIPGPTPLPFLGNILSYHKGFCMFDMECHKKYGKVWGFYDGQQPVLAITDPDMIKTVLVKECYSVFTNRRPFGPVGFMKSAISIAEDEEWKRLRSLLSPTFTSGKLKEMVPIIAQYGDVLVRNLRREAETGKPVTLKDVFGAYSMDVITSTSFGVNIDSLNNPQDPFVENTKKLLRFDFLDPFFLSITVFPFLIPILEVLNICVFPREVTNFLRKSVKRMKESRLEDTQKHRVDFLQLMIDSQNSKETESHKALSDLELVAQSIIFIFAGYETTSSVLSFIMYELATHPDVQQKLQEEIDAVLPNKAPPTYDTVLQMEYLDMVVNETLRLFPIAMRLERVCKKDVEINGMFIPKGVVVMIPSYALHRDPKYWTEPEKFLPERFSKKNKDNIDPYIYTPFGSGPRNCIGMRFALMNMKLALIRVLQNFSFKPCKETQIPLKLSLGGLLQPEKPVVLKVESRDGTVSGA
Description: as §1, §2

CYP1A2 = biological target: T2, CYP1A2 (Homo sapiens, UniProt P05177); experiment: Direct CYP inhibition assay using pooled HLM
T2 sequence (P05177 1-516): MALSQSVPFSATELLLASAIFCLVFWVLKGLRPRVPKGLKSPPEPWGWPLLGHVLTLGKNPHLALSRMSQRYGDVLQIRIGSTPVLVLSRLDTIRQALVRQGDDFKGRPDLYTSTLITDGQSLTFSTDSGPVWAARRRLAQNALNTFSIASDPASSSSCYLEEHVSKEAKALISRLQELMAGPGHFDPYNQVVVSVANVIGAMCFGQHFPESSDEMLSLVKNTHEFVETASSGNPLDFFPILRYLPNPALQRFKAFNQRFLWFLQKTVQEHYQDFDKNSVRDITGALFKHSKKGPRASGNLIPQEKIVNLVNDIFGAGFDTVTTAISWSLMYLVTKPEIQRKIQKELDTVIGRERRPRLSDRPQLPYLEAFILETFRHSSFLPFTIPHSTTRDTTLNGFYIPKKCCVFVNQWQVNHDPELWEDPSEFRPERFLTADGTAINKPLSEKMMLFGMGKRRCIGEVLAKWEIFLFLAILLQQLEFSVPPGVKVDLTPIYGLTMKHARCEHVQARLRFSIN
Description: as §1, §2

[1] = test system: CYP enzymes (range over all CYP enzymes tested); experiment: Direct CYP inhibition assay using pooled HLM, all CYP enzymes tested; type: in vitro ADME, human; settings: human, pooled human liver microsomes, pH 7.4, read-out: IC50 values, range over all CYP enzymes tested (pan-CYP inhibitory activities)
Description: as §1
(§3) The chromatographic separation was performed on an Agilent 1200 series HPLC system (Agilent Technologies, Santa Clara, CA, USA) equipped with an Atlantis^TM dC18 column (2.1 × 50 mm, 3 µm; Waters Corporation, Milford, MA, USA) with a SecuityGuard^TM C18 guard column (2.0 × 4.0 mm; Phenomenex, Torrance, CA, USA). The mobile phases consisted of double-deionized water (DDW) containing 0.1% (v/v) of formic acid (A) and ACN containing 0.1% (v/v) formic acid (B). […] The sample injection volume was 10 µL, and the total run time was 9.0 min. The column and auto-sampler compartments were maintained at 30 °C and 10 °C, respectively, throughout the analysis. The detection was performed using an API4000 Q-TRAP system equipped with a Turbo V Ion Spray^TM source (Applied Biosystems, Foster City, CA, USA). […] The samples were analyzed via multiple reaction monitoring (MRM) mode. […]

CYP2C19 = CYP2C19 (Homo sapiens, UniProt P33261); experiment: Direct CYP inhibition assay using pooled HLM
CYP2C19, sequence (P33261 whole entry): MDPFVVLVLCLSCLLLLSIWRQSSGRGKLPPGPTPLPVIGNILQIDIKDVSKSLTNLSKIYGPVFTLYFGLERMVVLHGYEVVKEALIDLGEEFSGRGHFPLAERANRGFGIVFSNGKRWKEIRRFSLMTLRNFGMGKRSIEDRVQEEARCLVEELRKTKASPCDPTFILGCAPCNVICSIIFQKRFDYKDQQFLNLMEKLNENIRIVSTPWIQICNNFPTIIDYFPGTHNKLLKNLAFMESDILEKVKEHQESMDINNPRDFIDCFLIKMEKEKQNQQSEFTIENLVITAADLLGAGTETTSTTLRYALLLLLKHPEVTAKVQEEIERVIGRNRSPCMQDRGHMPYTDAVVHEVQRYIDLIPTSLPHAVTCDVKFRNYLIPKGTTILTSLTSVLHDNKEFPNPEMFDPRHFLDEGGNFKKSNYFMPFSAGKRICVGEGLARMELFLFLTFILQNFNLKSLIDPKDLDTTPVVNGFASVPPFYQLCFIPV
Description: as §1, §2

CYP2A6 = biological target: T3, CYP2A6 (Homo sapiens, UniProt P11509); experiment: Direct CYP inhibition assay using pooled HLM
T3 sequence (P11509 1-494): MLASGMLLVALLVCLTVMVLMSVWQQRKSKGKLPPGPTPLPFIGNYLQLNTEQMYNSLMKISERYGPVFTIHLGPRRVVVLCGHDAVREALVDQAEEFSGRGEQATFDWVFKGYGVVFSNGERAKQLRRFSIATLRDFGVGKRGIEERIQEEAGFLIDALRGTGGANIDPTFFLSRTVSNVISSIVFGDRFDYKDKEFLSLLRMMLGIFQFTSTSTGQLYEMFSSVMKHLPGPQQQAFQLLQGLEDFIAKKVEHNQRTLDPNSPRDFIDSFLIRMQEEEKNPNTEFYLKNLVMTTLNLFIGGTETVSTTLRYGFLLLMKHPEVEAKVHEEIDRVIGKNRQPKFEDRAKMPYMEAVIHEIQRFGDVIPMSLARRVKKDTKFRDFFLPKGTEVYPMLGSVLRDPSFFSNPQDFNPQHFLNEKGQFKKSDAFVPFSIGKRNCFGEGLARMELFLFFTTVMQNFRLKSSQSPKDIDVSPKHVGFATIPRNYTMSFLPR
Description: as §1, §2

CYP2D6 [2] = biological target: T4, CYP2D6 (Homo sapiens, UniProt P10635); experiment: Direct CYP inhibition assay using pooled HLM
T4 sequence (P10635 whole entry): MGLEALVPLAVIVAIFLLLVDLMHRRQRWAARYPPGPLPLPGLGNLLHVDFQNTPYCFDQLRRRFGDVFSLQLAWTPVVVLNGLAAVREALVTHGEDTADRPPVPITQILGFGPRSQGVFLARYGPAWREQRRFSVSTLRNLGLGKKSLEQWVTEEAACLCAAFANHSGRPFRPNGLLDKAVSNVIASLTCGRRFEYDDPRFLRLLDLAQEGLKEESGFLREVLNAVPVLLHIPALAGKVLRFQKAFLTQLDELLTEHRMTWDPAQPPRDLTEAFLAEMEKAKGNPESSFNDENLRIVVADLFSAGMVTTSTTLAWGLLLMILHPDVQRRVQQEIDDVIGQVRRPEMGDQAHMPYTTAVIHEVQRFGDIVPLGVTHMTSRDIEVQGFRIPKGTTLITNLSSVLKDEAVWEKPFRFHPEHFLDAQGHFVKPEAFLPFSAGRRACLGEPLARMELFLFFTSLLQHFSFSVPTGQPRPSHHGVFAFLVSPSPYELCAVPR
Description: as §1, §2

CYP2C9 = CYP2C9 (Homo sapiens, UniProt P11712); experiment: Direct CYP inhibition assay using pooled HLM
CYP2C9, sequence (P11712 whole entry): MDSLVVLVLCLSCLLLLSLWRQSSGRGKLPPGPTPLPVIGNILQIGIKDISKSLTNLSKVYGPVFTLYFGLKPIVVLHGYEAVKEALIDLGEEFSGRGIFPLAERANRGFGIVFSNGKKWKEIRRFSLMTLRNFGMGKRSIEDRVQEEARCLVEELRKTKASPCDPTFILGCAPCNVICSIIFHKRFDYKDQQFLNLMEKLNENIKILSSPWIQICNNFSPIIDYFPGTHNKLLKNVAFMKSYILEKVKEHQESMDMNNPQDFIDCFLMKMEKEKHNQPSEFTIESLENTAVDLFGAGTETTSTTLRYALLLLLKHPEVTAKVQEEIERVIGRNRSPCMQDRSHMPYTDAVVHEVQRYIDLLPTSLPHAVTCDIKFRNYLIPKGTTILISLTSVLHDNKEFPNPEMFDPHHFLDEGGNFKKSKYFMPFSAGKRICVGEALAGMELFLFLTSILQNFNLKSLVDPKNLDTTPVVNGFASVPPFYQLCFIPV
Description: as §1, §2

[3] = Metabolic stability and metabolite formation of BBR in pooled HLM; settings: BBR 1 µM in pooled HLM with NADPH-generating system, mean ± SD
Description: To evaluate NADPH-dependent metabolism, BBR (1 µM) was incubated with pooled HLM (1 mg/mL) in the presence of the NADPH-regenerating system (1 mM of NADP^+, 5 mM of G6P, and 1 U/mL of G6PDH) to be a final volume of 200 µL. The reactions were quenched by adding the same volume of ice-cold ACN containing CBZ (100 nM) at 0, 7.5, 15, 30, 60, and 120 min of incubation. The incubation mixtures were centrifuged at 1000× g for 20 min at 4 °C, and the supernatants were analyzed by the LC-MS/MS system described in Section 2.2.
Meanwhile, to identify the known metabolites of BBR, an aliquot (5 µL) of the supernatant was injected into an accurate-MS system consisting of an Agilent 6530 Q-TOF LC/MS equipped with dual AJS ESI ion source (Agilent Technologies) and Agilent 1200 series HPLC system (Agilent Technologies). Chromatographic separations were performed on an Agilent Eclipse Plus C18 column (150 × 2.1 mm, 3.5 µm; Agilent Technologies) by gradient elution with a binary mobile phase consisting of DDW with 0.1% (v/v) formic acid (A) and ACN with 0.1% (v/v) formic acid (B) at a flow rate of 0.2 mL/min, where the mobile phase B was set as follows: 2% at 0 min, 20% at 15 min, and 30% at 20–25 min, followed by re-equilibration for 3 min.
In vitro metabolic stability parameters, including half-life (t1/2) and microsomal intrinsic clearance (CLint,mic), were determined according to our previous report [32]. The degradation t1/2 values of the microsomal stability studies were calculated using the following Equation (2):(2) t1/2=0.693/k, where k represents the first-order degradation rate constant. The k values were estimated by fitting a one-phase exponential decay model to the parent drug remaining (%) vs. incubation time plots using GraphPad Prism 5.0 (GraphPad Software Inc., San Diego, CA, USA).
The CLint,mic was determined using the in vitro half-life approach.

CYP2E1 = CYP2E1 (Homo sapiens, UniProt P05181); experiment: Direct CYP inhibition assay using pooled HLM
CYP2E1, sequence (P05181 whole entry): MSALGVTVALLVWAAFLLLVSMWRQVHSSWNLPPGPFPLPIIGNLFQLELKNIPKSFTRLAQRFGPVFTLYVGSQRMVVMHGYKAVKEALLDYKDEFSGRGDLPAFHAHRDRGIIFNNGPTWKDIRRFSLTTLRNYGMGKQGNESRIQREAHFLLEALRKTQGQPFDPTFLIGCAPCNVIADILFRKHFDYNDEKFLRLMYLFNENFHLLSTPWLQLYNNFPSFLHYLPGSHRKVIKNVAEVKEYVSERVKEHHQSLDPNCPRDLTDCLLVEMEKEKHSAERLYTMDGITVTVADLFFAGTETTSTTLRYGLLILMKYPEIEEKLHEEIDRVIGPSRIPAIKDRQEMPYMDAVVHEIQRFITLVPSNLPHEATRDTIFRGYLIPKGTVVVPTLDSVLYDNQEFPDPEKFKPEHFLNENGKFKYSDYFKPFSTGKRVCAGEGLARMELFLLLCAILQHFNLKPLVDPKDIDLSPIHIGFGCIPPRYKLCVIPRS
Description: as §1, §2

CYP2B6 = biological target: T5, CYP2B6 (Homo sapiens, UniProt P20813); experiment: Direct CYP inhibition assay using pooled HLM
T5 sequence (P20813 1-491): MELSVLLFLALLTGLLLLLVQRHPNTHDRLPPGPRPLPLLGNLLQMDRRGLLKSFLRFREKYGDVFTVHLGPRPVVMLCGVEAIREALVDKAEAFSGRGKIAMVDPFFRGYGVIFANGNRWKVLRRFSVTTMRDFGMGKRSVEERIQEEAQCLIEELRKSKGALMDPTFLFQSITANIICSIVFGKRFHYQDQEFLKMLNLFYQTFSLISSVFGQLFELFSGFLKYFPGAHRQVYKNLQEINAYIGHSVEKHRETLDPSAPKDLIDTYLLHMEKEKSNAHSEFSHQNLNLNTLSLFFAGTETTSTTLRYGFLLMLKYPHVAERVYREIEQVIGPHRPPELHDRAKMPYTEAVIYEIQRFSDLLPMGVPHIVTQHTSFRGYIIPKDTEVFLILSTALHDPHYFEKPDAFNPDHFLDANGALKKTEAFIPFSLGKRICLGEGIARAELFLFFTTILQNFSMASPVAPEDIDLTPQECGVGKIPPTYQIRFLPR
Description: as §1, §2

CYP2D6 [4] = biological target: T4, CYP2D6; experiment: Metabolism-dependent CYP2D6 inhibition assay (IC50 shift) using pooled HLM; settings: for MDI (metabolism-dependent inhibition) of CYP2D6 (in words): pre-incubation with NADPH
Description: Pre-incubation was performed in pooled HLM (0.2 mg/mL) added with BBR, THB, TFD, or DMB, or rhCYP2D6 (10 pmol/mL) added with BBR, with or without NADPH (1 mM) in phosphate buffer (0.1 M; pH 7.4) for 30 min. Then, the CYP2D6 substrate (5 µM of dextromethorphan) and NADPH (1 mM) were added to the mixture and incubated for another 10 min. All incubations were carried out at 37 °C in a shaking water bath (100 rpm) using eight-well tube strips placed in an 8 × 12 rack, where the final volume of each reaction mixture was 200 µL. […] The enzyme reactions were quenched by adding an aliquot (200 µL) of ice-cold ACN containing CBZ (100 nM) as an IS. The samples were centrifuged, and the concentration of CYP2D6 metabolite (i.e., dextrorphan, produced by O-demethylation of dextromethorphan) in supernatants were analyzed using the LC-MS/MS method described in Section 2.2.

[5] = type: in vitro ADME, human; settings: human, 1 µM
Description: Table 3. Putative M1 metabolite produced in pooled HLM incubated with thalifendine or
Precursor molecules Incubation time (min)a M1 signal at m/z 310 (103 × cps)b
Demethyleneberberine 0 107 ± 3
a Thalifendine or demethyleneberberine (1 μM) was incubated with pooled HLM in the presence of
NADPH-generating system; b Each value represents the mean ± SD for three separate samples. […]

CYP enzymes = experiment: Direct CYP inhibition assay using pooled HLM, all CYP enzymes tested; type: in vitro ADME, human; settings: read-out: IC50 values, range over all CYP enzymes tested (pan-CYP inhibitory activities)
Description: as §1, §3

[6] = IC50 CYP3A4 (MDZ), substrate MDZ
[7] = IC50 CYP3A4 (TST), substrate TST

IC50 (CYP2C8)	IC50 (CYP3A4; [6])	IC50 (CYP3A4; [7])	IC50 (CYP1A2)	IC50 (CYP2C19)	IC50 (CYP2A6)	IC50 (CYP2D6 [2])	IC50 (CYP2C9)	Concentration in incubation mixture (elimination of BBR and formation of its metabolites) ([3]; 0 min)	Concentration in incubation mixture (elimination of BBR and formation of its metabolites) ([3]; 7.5 min)	Concentration in incubation mixture (elimination of BBR and formation of its metabolites) ([3]; 15 min)	Concentration in incubation mixture (elimination of BBR and formation of its metabolites) ([3]; 30 min)	Concentration in incubation mixture (elimination of BBR and formation of its metabolites) ([3]; 60 min)	Concentration in incubation mixture (elimination of BBR and formation of its metabolites) ([3]; 120 min)	IC50 (CYP2E1)	IC50 (CYP2B6)	Compound	MDI (metabolism-dependent inhibition) of CYP2D6 (in words) (CYP2D6 [4]; pooled HLM)	also measured
72 µM	28 µM	45 µM	51 µM	49 µM	17 µM	45 µM	57 µM	5.4 ± 0.1 nM	5.6 ± 0.0 nM	5.8 ± 0.1 nM	6.0 ± 0.1 nM	6.1 ± 0.0 nM	6.2 ± 0.0 nM	34 µM	96 µM	COc1ccc2cc3[n+](cc2c1O)CCc1cc2c(cc1-3)OCO2 [BRB, berberrubine]		IC50 at 5 min [1]: 17 to 96 µM
> 100 µM	> 100 µM	> 100 µM	> 100 µM	> 100 µM	> 100 µM	28 µM	> 100 µM	5.4 ± 0.1 nM	20.9 ± 0.4 nM	33.3 ± 0.6 nM	44.3 ± 1.0 nM	50.4 ± 0.7 nM	49.3 ± 1.0 nM	32 µM	> 100 µM	COc1c(O)ccc2cc3[n+](cc12)CCc1cc2c(cc1-3)OCO2 [TFD, thalifendine]	exhibited MDI	IC50 (CYP2D6 [4]; IC50 against CYP2D6, pre-incubation with NADPH, pooled HLM, 30 min pre-incubation with NADPH): 6.49 µM; IC50 (CYP2D6 [4]; IC50 against CYP2D6, pre-incubation without NADPH, pooled HLM, 30 min pre-incubation without NADPH): 20.6 µM; IC50 shift at 10 min (CYP2D6 [4]; human, pooled human liver microsomes, pH 7.4, probe dextromethorphan (5 µM)): 3.2; M1 signal at m/z 310 ([5]; 0 min): 6 ± 1 103 × cps; M1 signal at m/z 310 ([5]; 30 min): 2200 ± 125 103 × cps
																COc1ccc2c(c1OC)CN1CCc3cc4c(cc3C1C2)OCO4 (stereo not drawn) [THB, tetrahydroberberine]	exhibited MDI	Inhibition of CYP2C8 (in words) (CYP2C8; pooled HLM, up to 100 µM): not markedly inhibited; Inhibition of CYP3A4 (in words) (CYP3A4; up to 100 µM, substrates MDZ and TST): not markedly inhibited; Inhibition of CYP1A2 (in words) (CYP1A2; pooled HLM, up to 100 µM): not markedly inhibited; Fold reduction in IC50 against CYP2D6 (IC50 shift) (CYP2D6 [4]; pooled HLM, pre-incubation with vs without NADPH): 2.2 fold; IC50 (CYP2D6 [4]; read-out: IC50 against CYP2D6, pre-incubation with NADPH, pooled HLM, 30 min pre-incubation with NADPH): 0.306 µM; IC50 (CYP2D6 [4]; read-out: IC50 against CYP2D6, pre-incubation without NADPH, pooled HLM, 30 min pre-incubation without NADPH): 0.661 µM; Inhibition of CYP2C19 (in words) (CYP2C19; pooled HLM, up to 100 µM): not markedly inhibited; Inhibition of CYP2A6 (in words) (CYP2A6; pooled HLM, up to 100 µM): not markedly inhibited; IC50 (CYP2D6 [2]; read-out: IC50 CYP2D6, pooled HLM, direct inhibition, substrate dextromethorphan, 95% confidence intervals in parentheses): 0.97 µM; Inhibition of CYP2C9 (in words) (CYP2C9; pooled HLM, up to 100 µM): not markedly inhibited; Inhibition of CYP2E1 (in words) (CYP2E1; pooled HLM, up to 100 µM): not markedly inhibited; Inhibition of CYP2B6 (in words) (CYP2B6; pooled HLM, up to 100 µM): not markedly inhibited
																COc1ccc2c(c1O)CN1CCc3cc4c(cc3C1C2)OCO4 (stereo not drawn) [TRB, Tetrahydroberberrubine·acetate]		IC50 (CYP2C8; microsomes): 9.5 µM; IC50 (CYP1A2; microsomes): 6.9 µM; IC50 (CYP enzymes): 2.7 to 9.6 µM; IC50 (CYP2C19; read-out: IC50 CYP2C19, pooled HLM, direct inhibition, 95% confidence intervals in parentheses): 5.4 µM; IC50 (CYP2A6; microsomes): 4.7 µM; IC50 (CYP2D6 [2]; microsomes): 3.4 µM; IC50 (CYP2C9; microsomes): 6.5 µM; IC50 (CYP2E1; read-out: IC50 CYP2E1, pooled HLM, direct inhibition, 95% confidence intervals in parentheses): 2.7 µM; IC50 (CYP2B6; read-out: IC50 CYP2B6, pooled HLM, direct inhibition, 95% confidence intervals in parentheses): 9.6 µM
																demethylene-TFD [M1]		M1 (m/z = 310) signal formed from BBR ([3]; 0 min): 1.3 ± 0.25 1000 × cps; M1 (m/z = 310) signal formed from BBR ([3]; 7.5 min): 28 ± 0.66 1000 × cps; M1 (m/z = 310) signal formed from BBR ([3]; 15 min): 80 ± 0.31 1000 × cps; M1 (m/z = 310) signal formed from BBR ([3]; 30 min): 220 ± 2.6 1000 × cps; M1 (m/z = 310) signal formed from BBR ([3]; 60 min): 540 ± 15 1000 × cps; M1 (m/z = 310) signal formed from BBR ([3]; 120 min): 1100 ± 26 1000 × cps

Compound	IC50 (CYP2C8)	IC50 (CYP3A4; [6])	IC50 (CYP3A4; [7])	IC50 (CYP1A2)	IC50 (CYP2C19)	IC50 (CYP2A6)	IC50 (CYP2D6 [2])	IC50 (CYP2C9)	Concentration in incubation mixture (elimination of BBR and formation of its metabolites) ([3]; 0 min)	Concentration in incubation mixture (elimination of BBR and formation of its metabolites) ([3]; 7.5 min)	Concentration in incubation mixture (elimination of BBR and formation of its metabolites) ([3]; 15 min)	Concentration in incubation mixture (elimination of BBR and formation of its metabolites) ([3]; 30 min)	Concentration in incubation mixture (elimination of BBR and formation of its metabolites) ([3]; 60 min)	Concentration in incubation mixture (elimination of BBR and formation of its metabolites) ([3]; 120 min)	IC50 (CYP2E1)	IC50 (CYP2B6)	MDI (metabolism-dependent inhibition) of CYP2D6 (in words) (CYP2D6 [4]; pooled HLM)	also measured
COc1cc2c(cc1O)CC[n+]1cc3c(OC)c(OC)ccc3cc1-2 [JTZ, jatrorrhizine]	26 µM			> 100 µM	> 100 µM	> 100 µM	10 µM	> 100 µM	10.4 ± 0.3 nM	10.7 ± 0.1 nM	10.9 ± 0.3 nM	10.5 ± 0.3 nM	10.0 ± 0.2 nM	9.6 ± 0.2 nM	11 µM	> 100 µM		
